According to patent publication US11226337B2, “Chemoproteomic profiling of protein electrophilic and oxidative post-translational modifications” (Zenagem, LLC, priority 2017, dated 2022):

Tests used:
Assay in all cases: SILAC RP-ABPP
Format in all cases: cell-based
[1] = target: T1, CTSB Cathepsin B (P07858) (Homo sapiens, UniProt P07858); conditions: SILAC H/L, MDA-MB-231
T1 construct: In Situ Labelling of Cells with Hydrazine Probes for MS Experiments; endogenous in cells; host or cells: HEK293T and MDA-MB-231

[2] = target: T2, CTSZ Cathepsin Z (Q9UBR2) (Homo sapiens, UniProt Q9UBR2); conditions: SILAC H/L, MDA-MB-231
T2 construct: In Situ Labelling of Cells with Hydrazine Probes for MS Experiments; endogenous in cells; host or cells: HEK293T and MDA-MB-231
T2 sequence (Q9UBR2 62-303): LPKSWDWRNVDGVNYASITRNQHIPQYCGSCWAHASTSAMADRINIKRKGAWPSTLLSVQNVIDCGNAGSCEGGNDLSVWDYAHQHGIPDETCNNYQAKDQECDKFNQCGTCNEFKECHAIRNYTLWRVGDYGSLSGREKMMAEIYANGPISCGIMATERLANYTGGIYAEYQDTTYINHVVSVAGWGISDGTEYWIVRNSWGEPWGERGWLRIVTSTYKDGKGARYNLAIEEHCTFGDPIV

[3] = target: T3, EPDR1 Mammalian ependyminrelated (Q9UM22) (Homo sapiens, UniProt Q9UM22); conditions: SILAC H/L, MDA-MB-231
T3 construct: shared by both the endogenous and recombinant forms of these proteins; endogenous in cells; host or cells: HEK293T and MDA-MB-231
T3 sequence (Q9UM22 38-224): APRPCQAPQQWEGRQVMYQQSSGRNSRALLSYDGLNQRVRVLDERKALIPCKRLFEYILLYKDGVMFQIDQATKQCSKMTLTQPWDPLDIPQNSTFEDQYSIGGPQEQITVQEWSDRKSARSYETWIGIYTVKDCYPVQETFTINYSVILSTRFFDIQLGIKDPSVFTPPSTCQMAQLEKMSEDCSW

[4] = target: T4, LIPA Lysosomal acid lipase/cholesteryl ester (P38571) (Homo sapiens, UniProt P38571); conditions: SILAC H/L, MDA-MB-231
T4 construct: In Situ Labelling of Cells with Hydrazine Probes for MS Experiments; endogenous in cells
T4 sequence (P38571 77-399): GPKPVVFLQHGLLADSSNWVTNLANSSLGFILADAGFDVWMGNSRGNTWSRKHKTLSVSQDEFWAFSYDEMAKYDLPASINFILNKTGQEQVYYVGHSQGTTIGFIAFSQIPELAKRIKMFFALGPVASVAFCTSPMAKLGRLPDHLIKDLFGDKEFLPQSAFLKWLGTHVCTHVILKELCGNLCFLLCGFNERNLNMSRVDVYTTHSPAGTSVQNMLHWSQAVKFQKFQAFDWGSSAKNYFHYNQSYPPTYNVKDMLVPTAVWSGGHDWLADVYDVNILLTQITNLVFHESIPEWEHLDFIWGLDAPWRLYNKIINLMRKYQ

[5] = target: T5, PLD3 Phospholipase D3 (Q8IV08) (Homo sapiens, UniProt Q8IV08); conditions: SILAC H/L, HEK293T
T5 construct: shared by both the endogenous and recombinant forms of these proteins; endogenous in cells; host or cells: HEK293T and MDA-MB-231
T5 sequence (Q8IV08 1-490): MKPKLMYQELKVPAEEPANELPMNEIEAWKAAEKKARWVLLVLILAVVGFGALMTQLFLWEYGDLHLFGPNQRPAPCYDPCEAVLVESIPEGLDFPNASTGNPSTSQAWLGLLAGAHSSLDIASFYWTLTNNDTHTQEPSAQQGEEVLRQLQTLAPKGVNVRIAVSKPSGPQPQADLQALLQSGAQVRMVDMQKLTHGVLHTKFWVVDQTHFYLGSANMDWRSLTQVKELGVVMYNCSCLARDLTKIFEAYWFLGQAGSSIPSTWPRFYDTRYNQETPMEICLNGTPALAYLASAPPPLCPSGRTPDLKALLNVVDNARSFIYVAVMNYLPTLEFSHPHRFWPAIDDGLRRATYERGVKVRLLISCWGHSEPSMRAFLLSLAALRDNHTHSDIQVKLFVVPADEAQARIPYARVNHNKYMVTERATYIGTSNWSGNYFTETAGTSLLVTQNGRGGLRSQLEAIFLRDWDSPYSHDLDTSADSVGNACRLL

enrichment ratioavg ([1]; probe 2 1 mM 0.5 h vs probe 4)	competition ratioavg ([1]; probe 2 vs probe 2+10x probe 4)	enrichment ratioavg ([2]; probe 2 1 mM 0.5 h vs probe 4)	competition ratioavg ([2]; probe 2 vs probe 2+10x probe 4)	enrichment ratioavg ([3]; probe 2 1 mM 0.5 h vs probe 4)	competition ratioavg ([3]; probe 2 vs probe 2+10x probe 4)	enrichment ratioavg ([4]; probe 2 1 mM 0.5 h vs probe 4)	competition ratioavg ([4]; probe 2 vs probe 2+10x probe 4)	SMILES	enrichment ratioavg ([1]; probe 1 3 mM 0.5 h vs probe 3)	competition ratioavg ([1]; probe 1 vs probe 1+10x probe 3)	enrichment ratioavg ([2]; probe 1 3 mM 0.5 h vs probe 3)	competition ratioavg ([2]; probe 1 vs probe 1+10x probe 3)	enrichment ratioavg ([3]; probe 1 3 mM 0.5 h vs probe 3)	competition ratioavg ([3]; probe 1 vs probe 1+10x probe 3)	enrichment ratioavg ([4]; probe 1 3 mM 0.5 h vs probe 3)	competition ratioavg ([4]; probe 1 vs probe 1+10x probe 3)	enrichment ratioavg ([5]; probe 1 3 mM 0.5 h vs probe 3)	competition ratioavg ([5]; probe 1 vs probe 1+10x probe 3)	enrichment ratioavg ([5]; probe 2 1 mM 0.5 h vs probe 4)	competition ratioavg ([5]; probe 2 vs probe 2+10x probe 4)
–	–	–	–	–	–	–	–	C#CCNN.Cl [probe 1, prop-2-yn-1-ylhydrazine hydrochloride]	9	3	13	3	20	20	7	4	12	2	–	–
14	5	19	5	20	5	17	3	C#CCCNC(=O)c1ccc(NN)cc1.Cl [probe 2, N-(but-3-yn-1-yl)-4-hydrazinylbenzamide hydrochloride]	–	–	–	–	–	–	–	–	–	–	5	2
